Some test systems named below: DU-145 prostate; HT29 colon; IGROV1 ovarian; M14 melanoma; MCF7 breast; OVCAR-4 ovarian; RPMI-8226 leukemia; SNB-19 CNS; SR leukemia; TK-10 renal.
Test in all cases: growth of human tumour cells (NCI), 48 h

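Cells were grown in 96-well plates and exposed to each compound for 48 hours at five concentrations; endpoints were interpolated linearly between bracketing concentrations, or set to the highest concentration if not reached. GI50 is the concentration that inhibits growth by half. TGI: total growth inhibition.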

Turning to `COCc1cc(C(=O)Nc2cc([C@H]3CC[C@@H](OC(=O)NC(C)C)C3)[nH]n2)n(C)n1`, the GI50 is 5.13 µM in the assay on DU-145 prostate; 10.3 µM in the assay on HT29 colon; 4.74 µM with IGROV1 ovarian; 12.2 µM in the assay with M14 melanoma; 2.53 µM in the assay on MCF7 breast; 4.89 µM with OVCAR-4 ovarian. Also, the GI50 in the assay with RPMI-8226 leukemia was 14.2 µM; in the assay on SNB-19 CNS it was 12.7 µM; in the assay with SR leukemia, 1.32 µM; in the assay on TK-10 renal, 19.9 µM. Also, the TGI in the assay on DU-145 prostate was above 100 µM; in the assay on HT29 colon, 89 µM; in the assay with IGROV1 ovarian, above 100 µM; in the assay on M14 melanoma, 40.5 µM; in the assay with MCF7 breast, above 100 µM; in the assay on OVCAR-4 ovarian, 77.2 µM. Further, the TGI in the assay with RPMI-8226 leukemia is 47 µM; with SNB-19 CNS, above 100 µM; in the assay with SR leukemia, 9.9 µM; with TK-10 renal, above 100 µM.
As to `COc1cc(-c2cc(O)c(-c3ccc4ccccc4n3)c(=O)[nH]2)cc(OC)c1OC`, the TGI in the assay with DU-145 prostate was above 85.6 µM; in the assay with HT29 colon, above 73.1 µM; in the assay with IGROV1 ovarian it was above 78.8 µM; in the assay on M14 melanoma it was above 95.2 µM; with MCF7 breast it was above 100 µM; in the assay with OVCAR-4 ovarian it was above 53.6 µM. Further, the TGI in the assay on RPMI-8226 leukemia was above 95.3 µM; in the assay with SNB-19 CNS, above 100 µM; in the assay on SR leukemia, 20.9 µM; with TK-10 renal, above 100 µM.
Take `CC(=O)C1=C(O)C=C2Oc3c(C(=O)/C=C/c4c(Cl)cccc4Cl)c(O)c(C)c(O)c3[C@]2(C)C1=O`: the GI50 in the assay with DU-145 prostate was 0.966 µM; in the assay on HT29 colon, 1.73 µM; with IGROV1 ovarian it was 1.56 µM; in the assay with M14 melanoma, 0.961 µM; with MCF7 breast it was 0.436 µM; with OVCAR-4 ovarian, 3.19 µM. The GI50 in the assay on RPMI-8226 leukemia was 0.5 µM; in the assay on SNB-19 CNS, 1.08 µM; in the assay on SR leukemia it was 1.52 µM; in the assay on TK-10 renal, 0.728 µM. Moreover, the TGI came to 6.31 µM with DU-145 prostate; 6.23 µM in the assay on HT29 colon; 9.37 µM in the assay with IGROV1 ovarian; 3.83 µM in the assay on M14 melanoma; 2.75 µM with MCF7 breast; 11.3 µM with OVCAR-4 ovarian. The TGI was 1.77 µM in the assay with RPMI-8226 leukemia, 5.93 µM in the assay with SNB-19 CNS, 7.7 µM in the assay with SR leukemia and 5.17 µM with TK-10 renal.

The values are drawn from PubChem BioAssay (NCI).
